# Measurements as given in US20110189199A1, “METHODS FOR P2RY5 MEDIATED REGULATION OF HAIR GROWTH AND MUTANTS THEREOF” (priority 2008, published 2011).
# How the values were obtained:
# [1] = test system: Tango™ P2RY5 U2OS Clone 10F cells; assay: Cell death at high PMA concentrations in the Tango P2RY5 assay; assay type: cell-based
# Experimental: The Tango™ P2RY5 U2OS Clone 10F cells were plated at 10,000 cells/well into a 384 well clear bottom assay plate in 32 μl/well Freestyle™ medium. 4 μl/well 10× DMSO in Freestyle™ medium was then added to the wells of the assay plate to bring the final DMSO concentration in the wells to 0% (no DMSO), 0.1%, 0.5% or 1.0% DMSO. 4 μl/well PMA (10× in Freestyle™ medium) was immediately added to the plate to the indicated concentrations. The plate was placed at 37° C./5% CO2 for 18 hours for receptor stimulation followed by beta-lactamase substrate loading for 2 hours.
# The Tango™ P2RY5 U2OS Clone 10F cells were plated at 10,000 cells/well into two 384 well clear bottom assay plate in 32 μl/well Freestyle™ medium. One plate was placed at 37° C./5% CO2 for 18 hours prior to PMA stimulation for 5 hours while PMA was immediately added to the other plate for an 18 hours stimulation. At the time of stimulation 4 μl/well of a 10× stock of DMSO in Freestyle™ medium was added to the wells of the assay plate to bring the final DMSO concentration in the wells to 0.1% DMSO. 4 μl/well PMA (10× in Freestyle™ medium) was then added to the plate to the indicated concentrations. The plates were placed at 37° C./5% CO2 for 5 or 18 hours for receptor stimulation followed by beta-lactamase substrate loading for 2 h.
# Tango™ P2RY5 U2OS clone 10F cells were cryopreserved at 2.5×10̂6 cells/ml in Recovery™ freezing medium in liquid nitrogen for several days. The cells were thawed into Freestyle™ assay medium prior to use in the assay. The Tango™ P2RY5 U2OS Clone 10F cells were plated at 10,000 cells/well into two 384 well clear bottom assay plate in 32 μl/well Freestyle™ medium. One plate was placed at 37° C./5% CO2 for 18 hours prior to PMA stimulation for 5 hours while PMA was immediately added to the other plate for an 18 hour stimulation. At the time of stimulation 4 μl/well of a 10× stock of DMSO in Freestyle™ medium was added to the wells of the assay plate to bring the final DMSO concentration in the wells to 0.1% DMSO. […]
# [2] = target: P2RY5 receptor (Homo sapiens, UniProt P43657, DEL128-129/DEL256-257/Q258T); assay: Tango P2RY5 U2OS beta-lactamase reporter assay; assay type: cell-based
# Experimental: The Tango™ P2RY5 U2OS antibiotic selected pool cells were plated at 10,000 cells/well into a 384 well clear bottom assay plate in Freestyle™ media. FBS (Fetal Bovine 20%) or a PMA concentration dilution series (in Freestyle™ media) was then added to the plate at the indicated concentrations. The plate was placed at 37° C. 5% CO2 for 24 hours for receptor stimulation followed by betalactamase substrate loading for 2 hours. (The P2RY5 cells were also tested with a 48 hour stimulation time with equivalent results.)
# (§1) The antibiotic selected Tango™ P2RY5 U2OS cells were cultured to 80-90% confluence in tissueculture flasks. The growth media was then removed and replaced with Freestyle™ media either with (stimulated) or without (un-stimulated) 20% FBS. The cultures were then placed at 37° C. 5% CO2 for 48 hours for receptor stimulation followed by beta-lactamase substrate loading for 2 hours. Responsive cells were then sorted by FACS into a single pool and three 96 well plates of clones.
# The Tango™ P2RY5 U2OS cells were plated at 10,000 cells/well into a 384 well clear bottom assay plate in Freestyle™ media. FBS was then added to half the wells in the assay to a concentration of 20% (stimulated) while the other half of the assay received an equal volume of Freestyle™ Media (un-stimulated). The plate was placed at 37° C. 5% CO2 for 48 hours for receptor stimulation followed by betalactamase substrate loading for 2 hours.
# as §1, with “selected FACS sorted responsive cell” for “selected”, “U2OS Pool was” for “U2OS cells were”, “in two tissue culture” for “in tissueculture”, “a green cell pool from the un-stimulated cell sample, and into a blue cell” for “a single”, “of clones from the FBS stimulated sample.” for “of clones.”
# The Tango™ P2RY5 U2OS sorted pool cells were plated at 10,000 cells/well into a 384 well clear bottom assay plate in FreeStyle™ media. The dFBS was immediately added to plate to final concentration of 20% by volume (stimulated). An equal volume of Free Style™ media was added to the un-stimulated wells. The plate was placed at 37° C. 5% CO2 for 48 hrs for receptor stimulation followed by beta-lactamase substrate loading for 2 hours.
# The Tango™ P2RY5 U2OS sorted pool cells were plated at 10,000 cells/well into a 384 well clear bottom assay plate in FreeStyle™ media. The plate was placed at 37° C. […]
# Chain of P2RY5 receptor (P43657 with tags, fused parts or gaps DEL128-129/DEL256-257/Q258T): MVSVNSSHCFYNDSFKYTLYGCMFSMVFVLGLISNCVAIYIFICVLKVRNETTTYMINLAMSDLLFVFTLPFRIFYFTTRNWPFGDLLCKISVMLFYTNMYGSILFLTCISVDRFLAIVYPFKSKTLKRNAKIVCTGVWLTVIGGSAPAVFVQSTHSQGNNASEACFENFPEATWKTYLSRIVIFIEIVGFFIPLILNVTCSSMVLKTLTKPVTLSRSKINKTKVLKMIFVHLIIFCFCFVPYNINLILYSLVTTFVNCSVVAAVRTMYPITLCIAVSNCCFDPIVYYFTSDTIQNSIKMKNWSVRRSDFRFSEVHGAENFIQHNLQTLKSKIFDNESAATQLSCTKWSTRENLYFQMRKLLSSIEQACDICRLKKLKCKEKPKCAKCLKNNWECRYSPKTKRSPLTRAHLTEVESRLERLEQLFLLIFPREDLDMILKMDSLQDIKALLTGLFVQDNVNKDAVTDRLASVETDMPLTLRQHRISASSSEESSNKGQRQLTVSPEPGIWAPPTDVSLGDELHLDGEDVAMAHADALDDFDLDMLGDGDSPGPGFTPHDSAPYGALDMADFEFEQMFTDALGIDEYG
structure (smiles),measurement,setting,value
CCCCCCCCCCCCCC(=O)O[C@@H]1[C@@H](C)[C@@]2(O)[C@@H](C=C(CO)C[C@]3(O)C(=O)C(C)=C[C@@H]23)[C@@H]2C(C)(C)[C@]12OC(C)=O [PMA],PMA concentrations with cell death in the wells,"[1]; cryopreserved cells, 18 hours stimulation",greater than 100 nM
same,PMA concentrations with cell death in the wells,"[1]; dividing cells, 5 hour stimulation",> 1 µM
same,PMA concentrations with cell death in the wells,"[1]; dividing cells, 18 hour stimulation",greater than 100 nM
same,"assay window, 5 hour vs 18 hour stimulation time","[2]; Clone 10F, 5 hour stimulation, 0.1% DMSO",larger assay window than the 18 hour stimulation time
same,"response to PMA, cryopreserved vs dividing cells","[2]; Clone 10F, cryopreserved cells, 5 or 18 hours stimulation",slightly less potent response
same,beta-lactamase response through the P2RY5 receptor,"[2]; Green sort pool, 5 hours stimulation",slight inducible beta-lactamase response
same,beta-lactamase response through the P2RY5 receptor,"[2]; sorted clones, 18 hours stimulation",concentration dependant beta-lactamase response
